# Patent US20190269614A1, “CHEWABLE TABLET CONTAINING VITAMIN C SODIUM AND PREPARATION METHOD THEREOF” (GUANGXI SANPOTEL HEALTH INDUSTRY CO. LTD, priority 2016, published 2019)
# Assay: Lubricant trial: tabletting of vitamin C sodium chewable tablets with different lubricants
# Type: physicochemical
# Conditions: for Tabletting condition: granules with the named lubricant; for Friability / Hardness: tablets with the named lubricant
# Description: During tabletting, in order to increase granule fluidity, and ensure good filling and even distribution of tablet density, a certain amount of lubricant needs to be added to solve the problems of poor granule fluidity and sticking during tabletting. In the experiment of the present application, tabletting conditions when magnesium stearate, micro-powder silica gel, talcum powder, sodium dodecyl sulfate and mannitol were used as the lubricant were compared, and results are shown in Table 3.
# From the test results in Table 3, it can be seen that when magnesium stearate, sodium dodecyl sulfate and mannitol are used, fluidity is good and sticking during tabletting is avoided, and prepared tablets have appropriate hardness and smooth and beautiful surfaces; when micro-powder silica gel is added, fluidity is good and sticking during tabletting is avoided, but the hardness of prepared tablets is low; and when talcum powder is added, fluidity is poor and sticking occurs during tabletting, and prepared tablets have large hardness. Therefore, magnesium stearate, sodium dodecyl sulfate and mannitol are selected as the lubricant in the present application.
Tabletting condition,Friability [%],Hardness [N],Compound
non-sticking,0.39,54,OC[C@@H](O)[C@@H](O)[C@H](O)[C@H](O)CO [mannitol]
non-sticking,0.42,59,CCCCCCCCCCCCOS(=O)(=O)[O-].[Na+] [sodium dodecyl sulfate]

Compound,Tabletting condition,Friability [%],Hardness [N]
magnesium stearate,non-sticking,0.34,49
